Source: the supplement of paper PMC10307832

Legend:
Assay in all cases: relative viability (nuclei count vs DMSO), 5 days (fraction); higher = more cells survive
[1] = compound: Cc1ccc2nc(NCCN)c3ncc(C)n3c2c1 + N=C(N)NC(=N)NCCc1ccccc1 [Phenformin] (partner 250 µM)
Method in brief: (§1)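 Medians of duplicate plates are given as relative viability. That measure is the nuclei count in treated wells divided by the count in vehicle wells. Counts were taken on 4× images of lung cancer cell lines in 1536-well plates, 5 days after pin-tool dosing the day after seeding with one drug alone or a fixed anchor-drug dose plus five library-drug doses (not always all listed) in √10 steps.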

Salubrinal + Trametinib = compound: O=C(/C=C/c1ccccc1)NC(NC(=S)Nc1cccc2cccnc12)C(Cl)(Cl)Cl [Salubrinal] + CC(=O)Nc1cccc(-n2c(=O)n(C3CC3)c(=O)c3c(Nc4ccc(I)cc4F)n(C)c(=O)c(C)c32)c1 [Trametinib] (partner 0.02 µM)
Method in brief: as §1

Salubrinal + Pictilisib = compound: O=C(/C=C/c1ccccc1)NC(NC(=S)Nc1cccc2cccnc12)C(Cl)(Cl)Cl [Salubrinal] + CS(=O)(=O)N1CCN(Cc2cc3nc(-c4cccc5[nH]ncc45)nc(N4CCOCC4)c3s2)CC1 [Pictilisib] (partner 1 µM)
Method in brief: as §1

Salubrinal + Vorinostat = compound: O=C(/C=C/c1ccccc1)NC(NC(=S)Nc1cccc2cccnc12)C(Cl)(Cl)Cl [Salubrinal] + O=C(CCCCCCC(=O)Nc1ccccc1)NO [Vorinostat] (partner 1 µM)
Method in brief: as §1

| Cell Line | relative viability ([1]; first compound 0.04 µM) | relative viability ([1]; first compound 0.1265 µM) | relative viability ([1]; first compound 0.4 µM) | relative viability ([1]; first compound 1.265 µM) | relative viability ([1]; first compound 4 µM) | relative viability (Salubrinal + Trametinib; first compound 0.08 µM) | relative viability (Salubrinal + Trametinib; first compound 0.253 µM) | relative viability (Salubrinal + Trametinib; first compound 0.8 µM) | relative viability (Salubrinal + Trametinib; first compound 2.53 µM) | relative viability (Salubrinal + Trametinib; first compound 8 µM) | relative viability (Salubrinal + Pictilisib; first compound 0.08 µM) | relative viability (Salubrinal + Pictilisib; first compound 0.253 µM) | relative viability (Salubrinal + Pictilisib; first compound 0.8 µM) | relative viability (Salubrinal + Pictilisib; first compound 2.53 µM) | relative viability (Salubrinal + Pictilisib; first compound 8 µM) | relative viability (Salubrinal + Vorinostat; first compound 0.08 µM) | relative viability (Salubrinal + Vorinostat; first compound 0.253 µM) | relative viability (Salubrinal + Vorinostat; first compound 0.8 µM) | relative viability (Salubrinal + Vorinostat; first compound 2.53 µM) | relative viability (Salubrinal + Vorinostat; first compound 8 µM) |
| --- | --- | --- | --- | --- | --- | --- | --- | --- | --- | --- | --- | --- | --- | --- | --- | --- | --- | --- | --- | --- |
| HARA | 0.437 | 0.449 | 0.388 | 0.342 | 0.453 | 0.715 | 0.873 | 0.631 | 0.621 | 0.702 | 0.524 | 0.328 | 0.558 | 0.328 | 0.375 | 0.617 | 0.631 | 0.597 | 0.478 | 0.475 |
| HCC-15 | 0.464 | 0.501 | 0.48 | 0.429 | 0.379 | 0.444 | 0.36 | 0.379 | 0.378 | 0.381 | 0.77 | 0.643 | 0.837 | 0.728 | 0.759 | 0.952 | 0.784 | 0.866 | 0.826 | 0.804 |
| LCLC-97TM1 | 0.38 | 0.427 | 0.435 | 0.465 | 0.435 | 0.186 | 0.185 | 0.209 | 0.17 | 0.235 | 0.261 | 0.162 | 0.2 |  | 0.181 | 0.751 | 0.739 | 1.04 | 0.939 | 0.656 |
| RERF-LC-KJ | 0.404 | 0.374 | 0.462 | 0.453 | 0.353 | 0.872 | 0.867 | 0.938 | 0.795 | 0.81 | 0.664 | 0.622 | 0.549 | 0.608 | 0.52 | 0.784 | 0.642 | 0.745 | 0.673 | 0.721 |
| NCI-H1651 | 0.351 | 0.273 | 0.315 | 0.358 | 0.352 | 0.848 | 0.833 | 0.898 | 0.829 | 0.929 | 0.822 | 0.486 | 0.667 |  | 0.423 | 0.597 | 0.478 | 0.669 | 0.527 | 0.546 |
| NCI-H1793 | 0.435 | 0.422 | 0.272 | 0.324 | 0.32 | 0.484 | 0.437 | 0.402 | 0.42 | 0.304 | 0.309 | 0.319 | 0.306 | 0.316 | 0.285 | 0.942 | 0.57 | 0.995 | 0.814 | 0.719 |
| NCI-H2023 | 0.466 | 0.409 | 0.434 | 0.437 | 0.349 | 0.601 | 0.617 | 0.509 | 0.447 | 0.416 | 0.22 | 0.278 | 0.289 | 0.277 | 0.208 | 0.9 | 0.7 | 0.746 | 0.737 | 0.613 |
| LC-2-ad | 0.637 | 0.546 | 0.55 | 0.547 | 0.44 | 1.01 | 0.848 | 0.885 | 0.946 | 0.917 | 0.457 | 0.448 | 0.519 | 0.385 | 0.323 | 0.735 | 0.644 | 0.692 | 0.651 | 0.665 |
